Data set [1] deals with Cln2^(−/−) mice. Briefly: Survival study of Cln2(−/−) mice treated orally with gem. The settings on record: gem 7.5 mg/kg body weight/day via gavage from 4 weeks of age. Type of data set: in vivo, mouse. From the text:
Animal maintaining and experiments were in accordance with National Institute of Health guidelines and were approved by the Institutional Animal Care and Use committee (IACUC) of the Rush University of Medical Center, Chicago, Ill. […] However, if any mouse came to the moribund stage, it was decapitated after anesthesia with ketamine/xylazine injectables. Conditions for moribund were as follows: central nervous system disturbance (head tilt, seizures, tremors, circling, spasticity, and paresis); inability to remain upright; evidence of muscle atrophy; chronic diarrhea or constipation; rough coat and distended abdomen; preading area of alopecia caused by disease; coughing, rales, wheezing and nasal discharge; distinct jaundice and/or paleness (anemia); markedly discolored urine, polyuria or anuria; frank bleeding from any orifice; persistent self-induced trauma. Cln2^(+/−) animals were kindly provided by Dr. Peter Lobel (Center for Advanced Biotechnology and Medicine, Robert Wood Johnson Medical School, Piscataway, N.J., USA). These animals were inbred and subsequent generations were screened by RTPCR to further obtain Cln2^(+/+), Cln2^(+/−) and Cln2^(−/−) strains. […]
All values are expressed as means±SEM. […]

The subject of data set [2] is SOCS3. The experiment in a line: Western blot of motor cortex and striatum extracts for SOCS3. Format: in vivo, mouse. The settings on record: Cln2(−/−) mice, 8 weeks of oral gem; both motor cortex and striatum. As for the experimental part:
(§1) Age- and sex-matched Cln2^(+/+) mice from the same background were used as wild type (WT) controls and Cln2^(−/−) animals were used in different treatment groups. Gem (7.5 mg/kg body wt/day) was dissolved in DMSO followed by dilution in 0.1% methyl cellulose (MeC). Cln2^(−/−) mice were either not fed (Un-untreated group), gavaged with 0.1% MeC (vehicle treated group) or gavaged with gem (gem-treated group) for 8 weeks for biochemical studies. Similar treatment regimen was followed as long as the animals are not considered to be morbid as described above for survival study. Here, 40 mice (20 male and 20 female) were used per group and animals (4 weeks old) were randomly selected for any group.
(§2) After 8 weeks of treatment, mice were sacrificed and cortex and striatum regions were isolated, homogenized in RIPA buffer (150 mM sodium chloride, 1.0% NP-40 or Triton X-100, 0.5% sodium deoxycholate, 0.1% SDS (sodium dodecyl sulphate), 50 mM Tris, pH 8.0), supernatant was taken and protein was estimated by BioRad protein assay. Equal amounts of protein from the tissue extract were separated in 12% or 15% Bis-Tris gels and proteins were transferred onto a nitrocellulose membrane (Bio-Rad) using the Thermo-Pierce Fast Semi-Dry Blotter (Corbett et al. 2015, Roy et al. 2015, Roy et al. 2016). […]
A general note: Immunoblotting shows a protein as a band on a membrane.

The subject of data set [3] is Cln2^(−/−) mice. Briefly: Locomotor activity (Digiscan Monitor open field) in Cln2(−/−) mice. The settings on record: oral gem 7.5 mg/kg/day, after 8 weeks of treatment. Format: in vivo, mouse. The procedure:
as §1
Locomotor activities were measured in Cln2^(−/−) mice after 8 weeks of gem treatment using Digiscan Monitor (Omnitech Electronics, Inc., Columbus, Ohio) as described by us (Khasnavis & Pahan 2014, Ghosh et al. 2007, Ghosh et al. 2009). This Digiscan Monitor records basic locomotion parameters, such as horizontal activity, total distance traveled, movement time, rest time, etc. as well as stereotypy, behavior that is directly controlled by striatum. […] DIGISCAN software was used to analyze and store horizontal and vertical activity data, which were monitored automatically by infra-red beams. […]

In the next data set the test system is NeuN-positive neurons. The experiment in a line: Neuronal apoptosis, NeuN/TUNEL double-labeling of brain sections. Type of data set: in vivo, mouse. The settings on record: Cln2(−/−) mice, oral gem 7.5 mg/kg/day, 8 weeks. As for the experimental part: Reagents for TUNEL assay on frozen brain sections were purchased from EMD Millipore (Billerica, Mass.) and experiments were performed according to manufacturer's protocol. Blocking buffer and secondary antibodies for immune blot (IB) (IRDye 700 or IRDye 800—labelled) were purchased from Licor (Lincoln, Nebr.). Secondary antibodies for immunohistochemistry (IHC) (FITC or Cy5—labeled) were purchased from Jackson ImmunoResearch (West Grove, Pa.).
Age- and sex-matched Cln2^(+/+) mice from the same background were used as wild type (WT) controls and Cln2^(−/−) animals were used in different treatment groups. Gem (7.5 mg/kg body wt/day) was dissolved in DMSO followed by dilution in 0.1% methyl cellulose (MeC). Cln2^(−/−) mice were either not fed (Un-untreated group), gavaged with 0.1% MeC (vehicle treated group) or gavaged with gem (gem-treated group) for 8 weeks for biochemical studies. […]
(§3) After 8 weeks of treatment, mice were sacrificed and their brains fixed, embedded, and processed. […] The samples were mounted and observed under Olympus IX41 fluorescence microscope. […] After acquiring images under 20×objective lens, images were further analyzed as follows. […] Once the area of the image was measured, touch counting program was applied to count number of fluorescent signals using simple mouse click method. […]

Another data set deals with astroglia or microglia. The experiment in a line: Astroglia and microglia in brain sections (GFAP, Iba1 immunofluorescence). Type of data set: in vivo, mouse. The settings on record: Cln2(−/−) mice, after gem treatment; motor cortex and striatum. The procedure: as §1
as §3, with “processed. Sections (30 μm) were made from different brain regions (motor cortex and striatum) using a Leica Cryostat and immunofluorescence staining on fresh frozen sections was performed as described (Corbett et al. 2015, Roy et al. 2015, Roy et al. 2016).” for “processed.”

Data set [4] concerns subunit c of mitochondrial ATP synthase (SCMAS). Briefly: Detection of storage materials by immunofluorescence of subunit c in motor cortex. Format: in vivo, mouse. The settings on record: Cln2(−/−) mice, oral gem 7.5 mg/kg/day, 8 weeks. As for the experimental part:
as §1, §3
It was performed by monitoring subunit c of mitochondrial ATP synthase (SCMAS) by immunofluorescence. […] SCMAS-associated fluorescence intensity was quantified by using the Olympus Microsuite V software. […]

The subject of data set [5] is IL-1Ra. Briefly: Western blot of motor cortex and striatum extracts for IL-1Ra. The settings on record: Cln2(−/−) mice, 8 weeks of oral gem; both motor cortex and striatum. Type of data set: in vivo, mouse. The procedure:
as §1, §2

The subject of data set [6] is IL-1Ra. The experiment in a line: Double-label immunofluorescence of striatal sections for IL-1Ra (GFAP, Iba1). Type of data set: in vivo, mouse. The settings on record: Cln2(−/−) mice, 8 weeks of oral gem, in both astrocytes and microglia. The procedure:
as §1
as §3, with “processed. Sections (30 μm) were made from different brain regions (motor cortex and striatum) using a Leica Cryostat and immunofluorescence staining on fresh frozen sections was performed as described (Corbett et al. 2015, Roy et al. 2015, Roy et al. 2016).” for “processed.”

For data set [7] the following is noted: cited from earlier work.
For data set [8] the following is noted: after oral administration; cited from earlier work.
Another data set deals with phospho-BAD (P-BAD). Briefly: Immunoblot of brain homogenates for phospho-BAD. Type of data set: in vivo, mouse. The settings on record: Cln2(−/−) mice, oral gem 7.5 mg/kg/day, 8 weeks. The procedure:
as §1, §2

The subject of data set [9] is SOCS3. The experiment in a line: Double-label immunofluorescence of striatal sections for SOCS3 (GFAP, Iba1). Format: in vivo, mouse. The settings on record: Cln2(−/−) mice, 8 weeks of oral gem, seen in astrocytes, microglia and other brain cells. The procedure: as §1
as §3, with “processed. Sections (30 μm) were made from different brain regions (motor cortex and striatum) using a Leica Cryostat and immunofluorescence staining on fresh frozen sections was performed as described (Corbett et al. 2015, Roy et al. 2015, Roy et al. 2016).” for “processed.”

`Cc1ccc(C)c(OCCCC(C)(C)C(=O)O)c1` [gem, 5-(2,5-dimethylphenoxy)-2,2-dimethylpentanoic acid]: the “increase of the lifespan” value in the data set on Cln2^(−/−) mice [1] is given as “more than 2 months”. Besides, in the data set on Cln2^(−/−) mice [1] (untreated all died within 137 days, vehicle within 150 days), the survived until is recorded as 204 days. Besides, the “SOCS3 level, Western blot” value in the data set with SOCS3 [2] is reported as “increase in SOCS3”. In addition, the “locomotor activities (horizontal activity, movement time, number of movement, total distance, stereotypy counts, rest time)” value in the data set on Cln2^(−/−) mice [3] is reported as “significantly improved locomotor activities”. Further, the “neuronal apoptosis (NeuN+TUNEL+ cells) in the motor cortex” value with NeuN-positive neurons (motor cortex) was “strongly inhibited neuronal apoptosis”. Moreover, the “neuronal apoptosis (NeuN+TUNEL+ cells) in the striatum” value with NeuN-positive neurons (striatum) is listed as “reduced neuronal apoptosis”. Further, the “number of astroglia or microglia” value in the data set on astroglia or microglia was “did not observe any reduction in either astroglia or microglia”. The “SCMAS storage material in the motor cortex” value in data set [4] is recorded as “significant decrease in SCMAS”. Also, in the data set with IL-1Ra [5], the “IL-1Ra level, Western blot” value is “increase”. Moreover, in the data set with IL-1Ra [6], the “IL-1Ra in the striatum, immunofluorescence” value was “restoration and/or upregulation of IL-1Ra”. Besides, the tolerability result in [7] (human and animal studies) was “well tolerated”. Moreover, the toxicity result in data set [7] (oral drug) was “fairly nontoxic”. The “entry into the CNS” value in data set [8] was “enters into the CNS”. Further, in the data set on phospho-BAD (P-BAD) (motor cortex), the “level of P-BAD in the motor cortex” value is recorded as “upregulation of P-BAD”. The “level of P-BAD in the striatum” value with phospho-BAD (P-BAD) (striatum) is listed as “increased the level of P-BAD”. In addition, the “SOCS3 in the striatum, immunofluorescence” value in the data set on SOCS3 [9] was “marked increase in SOCS3”.

The values are drawn from patent US11020366B2, “Locomotor activity and increase in longevity of late infantile neuronal ceriod lipofuscinosis subjects by Gemfibrozil” (Rush University Medical Center, priority 2016, dated 2021).
